In patent US20140343000A1 (priority 2011, published 2014):

test system: recombinant NL4-3 virus (Renilla luciferase in nef, Gag P373S; NLRluc) in MT-2 cells; test: whole plant or invertebrate; type: cell-based, HIV; details: Renilla, NL43, luciferase activity in cells infected for 4-5 days with NLRluc recombinants, serial dilutions of inhibitor; class symbols (key in Table 1); read-out: EC50
Procedure: MT-2 cells and 293T cells were obtained from the NIH AIDS Research and Reference Reagent Program. MT-2 cells were propagated in RPMI 1640 media supplemented with 10% heat inactivated fetal bovine serum, […]. The 293T cells were propagated in DMEM media supplemented with 10% heat inactivated fetal bovine serum (FBS), 100 units/ml penicillin G and 100 μg/ml streptomycin. The proviral DNA clone of NL4-3 was obtained from the NIH AIDS Research and Reference Reagent Program. A recombinant NL4-3 virus, in which a section of the nef gene from NL4-3 was replaced with the Renilla luciferase gene, was used as a reference virus. In addition, residue Gag P373 was converted to P373S. Briefly, the recombinant virus was prepared by transfection of the altered proviral clone of NL4-3. Transfections were performed in 293T cells using LipofectAMINE PLUS from Invitrogen (Carlsbad, Calif.), according to manufacturer's instruction. The virus was titered in MT-2 cells using luciferase enzyme activity as a marker. Luciferase was quantitated using the Dual Luciferase kit from Promega (Madison, Wis.), with modifications to the manufacturer's protocol. The diluted Passive Lysis solution was pre-mixed with the re-suspended Luciferase Assay Reagent and the re-suspended Stop & Glo Substrate (2:1:1 ratio). Fifty (50) μL of the mixture was added to each aspirated well on assay plates and luciferase activity was measured immediately on a Wallac TriLux (Perkin-Elmer). Antiviral activities of inhibitors toward the recombinant virus were quantified by measuring luciferase activity in cells infected for 4-5 days with NLRluc recombinants in the presence serial dilutions of the inhibitor. Table 1 is the key for the data in Table 2.

Question: For C=C(C)[C@@H]1CC[C@]2(NCCN3CCN(S(=O)(=O)c4ccc(Cl)cc4)CC3)CC[C@]3(C)[C@H](CC[C@@H]4[C@@]5(C)CC=C(c6ccc(C(=O)O)cc6)C(C)(C)[C@@H]5CC[C@]43C)[C@@H]12 [Example B46, 4-((1R,3aS,5aR,5bR,7aR,11aS,11bR,13aR,13bR)-3a-((2-(4-((4-chlorophenyl)sulfonyl)piperazin-1-yl)ethyl)amino)-5a,5b,8,8,11a-pentamethyl-1-(prop-1-en-2-yl)-2,3,3a,4,5,5a,5b,6,7,7a,8,11,11a,11b,12,13,13a,13b-octadecahydro-1H-cyclopenta[a]chrysen-9-yl)benzoic acid], which EC50 is on record?
Answer: < 100 nM

Question: Which EC50 does the source give for C=C(C)[C@@H]1CC[C@]2(NC(=O)N3CCCN(CCO)CC3)CC[C@]3(C)[C@H](CC[C@@H]4[C@@]5(C)CC=C(c6ccc(C(=O)O)cc6)C(C)(C)[C@@H]5CC[C@]43C)[C@@H]12 [Example 51, 4-((1R,3aS,5aR,5bR,7aR,11aS,11bR,13aR,13bR)-3a-(4-(2-hydroxyethyl)-1,4-diazepane-1-carboxamido)-5a,5b,8,8,11a-pentamethyl-1-(prop-1-en-2-yl)-2,3,3a,4,5,5a,5b,6,7,7a,8,11,11a,11b,12,13,13a,13b-octadecahydro-1H-cyclopenta[a]chrysen-9-yl)benzoic acid] here?
Answer: < 100 nM

Question: C=C(C)[C@@H]1CC[C@]2(NCCN3CCSCC3)CC[C@]3(C)[C@H](CC[C@@H]4[C@@]5(C)CC=C(c6ccc(C(=O)O)cc6)C(C)(C)[C@@H]5CC[C@]43C)[C@@H]12 [Example 168, 4-((1R,3aS,5aR,5bR,7aR,11aS,11bR,13aR,13bR)-5a,5b,8,8,11a-pentamethyl-1-(prop-1-en-2-yl)-3a-(2-thiomorpholinoethylamino)-2,3,3a,4,5,5a,5b,6,7,7a,8,11,11a,11b,12,13,13a,13b-octadecahydro-1H-cyclopenta[a]chrysen-9-yl)benzoic acid] was tested. Which EC50 did it give?
Answer: < 100 nM

Question: With C=C(C)[C@@H]1CC[C@]2(NC(=O)N3CCNC(=O)CC3)CC[C@]3(C)[C@H](CC[C@@H]4[C@@]5(C)CC=C(c6ccc(C(=O)O)cc6)C(C)(C)[C@@H]5CC[C@]43C)[C@@H]12 [Example 42, 4-((1R,3aS,5aR,5bR,7aR,11aS,11bR,13aR,13bR)-5a,5b,8,8,11a-pentamethyl-3a-(5-oxo-1,4-diazepane-1-carboxamido)-1-(prop-1-en-2-yl)-2,3,3a,4,5,5a,5b,6,7,7a,8,11,11a,11b,12,13,13a,13b-octadecahydro-1H-cyclopenta[a]chrysen-9-yl)benzoic acid] as the molecule, how does the EC50 read?
Answer: < 100 nM

Question: C=C(C)[C@@H]1CC[C@]2(NC(=O)N3CCNC(=O)C3CC(=O)O)CC[C@]3(C)[C@H](CC[C@@H]4[C@@]5(C)CC=C(c6ccc(C(=O)O)cc6)C(C)(C)[C@@H]5CC[C@]43C)[C@@H]12 (stereo partly drawn) [Example 56, 4-((1R,3aS,5aR,5bR,7aR,11aS,11bR,13aR,13bR)-3a-(2-(carboxymethyl)-3-oxopiperazine-1-carboxamido)-5a,5b,8,8,11a-pentamethyl-1-(prop-1-en-2-yl)-2,3,3a,4,5,5a,5b,6,7,7a,8,11,11a,11b,12,13,13a,13b-octadecahydro-1H-cyclopenta[a]chrysen-9-yl)benzoic acid] was tested. Which EC50 did it give?
Answer: < 100 nM

Question: For C=C(C)[C@@H]1CC[C@]2(NC(=O)Cc3cccnc3)CC[C@]3(C)[C@H](CC[C@@H]4[C@@]5(C)CC=C(c6ccc(C(=O)O)cc6)C(C)(C)[C@@H]5CC[C@]43C)[C@@H]12 [Example 120, benzoic acid, 4-[(1R,3aS,5aR,5bR,7aR,11aS,11bR,13aR,13bR)-2,3,3a,4,5,5a,5b,6,7,7a,8,11,11a,11b,12,13,13a,13b-octadecahydro-5a,5b,8,8,11a-pentamethyl-1-(1-methylethenyl)-3a-[(3-pyridinylacetyl)amino]-1H-cyclopenta[a]chrysen-9-yl]], which EC50 is on record?
Answer: < 100 nM

Question: With C=C(C)[C@@H]1CC[C@]2(NC(=O)CN3CCOCC3)CC[C@]3(C)[C@H](CC[C@@H]4[C@@]5(C)CC=C(c6ccc(C(=O)O)cc6)C(C)(C)[C@@H]5CC[C@]43C)[C@@H]12 [Example 97, 4-((1R,3aS,5aR,5bR,7aR,11aS,11bR,13aR,13bR)-5a,5b,8,8,11a-pentamethyl-3a-(2-morpholinoacetamido)-1-(prop-1-en-2-yl)-2,3,3a,4,5,5a,5b,6,7,7a,8,11,11a,11b,12,13,13a,13b-octadecahydro-1H-cyclopenta[a]chrysen-9-yl)benzoic acid] as the molecule, how does the EC50 read?
Answer: < 100 nM

Question: Which EC50 does the source give for C=C(C)[C@@H]1CC[C@]2(NCCN3CCN(S(=O)(=O)CCC)CC3)CC[C@]3(C)[C@H](CC[C@@H]4[C@@]5(C)CC=C(c6ccc(C(=O)O)cc6)C(C)(C)[C@@H]5CC[C@]43C)[C@@H]12 [Example B23, 4-((1R,3aS,5aR,5bR,7aR,11aS,11bR,13aR,13bR)-5a,5b,8,8,11a-pentamethyl-1-(prop-1-en-2-yl)-3a-((2-(4-(propylsulfonyl)piperazin-1-yl)ethyl)amino)-2,3,3a,4,5,5a,5b,6,7,7a,8,11,11a,11b,12,13,13a,13b-octadecahydro-1H-cyclopenta[a]chrysen-9-yl)benzoic acid] here?
Answer: < 100 nM

Question: C=C(C)[C@@H]1CC[C@]2(NCCN3CCN(S(=O)(=O)c4cccc5ccccc45)CC3)CC[C@]3(C)[C@H](CC[C@@H]4[C@@]5(C)CC=C(c6ccc(C(=O)O)cc6)C(C)(C)[C@@H]5CC[C@]43C)[C@@H]12 [Example B49, 4-((1R,3aS,5aR,5bR,7aR,11aS,11bR,13aR,13bR)-5a,5b,8,8,11a-pentamethyl-3a-((2-(4-(naphthalen-1-ylsulfonyl)piperazin-1-yl)ethyl)amino)-1-(prop-1-en-2-yl)-2,3,3a,4,5,5a,5b,6,7,7a,8,11,11a,11b,12,13,13a,13b-octadecahydro-1H-cyclopenta[a]chrysen-9-yl)benzoic acid] was tested. Which EC50 did it give?
Answer: < 100 nM

Question: C=C(C)[C@@H]1CC[C@]2(NCCCN(C)C)CC[C@]3(C)[C@H](CC[C@@H]4[C@@]5(C)CC=C(c6ccc(C(=O)O)cc6)C(C)(C)[C@@H]5CC[C@]43C)[C@@H]12 [Example 169, 4-((1R,3aS,5aR,5bR,7aR,11aS,11bR,13aR,13bR)-3a-(3-(dimethylamino)propylamino)-5a,5b,8,8,11a-pentamethyl-1-(prop-1-en-2-yl)-2,3,3a,4,5,5a,5b,6,7,7a,8,11,11a,11b,12,13,13a,13b-octadecahydro-1H-cyclopenta[a]chrysen-9-yl)benzoic acid] was tested. Which EC50 did it give?
Answer: < 100 nM

same assay, conditions: Renilla, NL43, luciferase activity in cells infected for 4-5 days with NLRluc recombinants, serial dilutions of inhibitor; numeric values; read-out: EC50

Question: C=C(C)[C@@H]1CC[C@]2(NCc3ccc(F)cn3)CC[C@]3(C)[C@H](CC[C@@H]4[C@@]5(C)CC=C(c6ccc(C(=O)O)cc6)C(C)(C)[C@@H]5CC[C@]43C)[C@@H]12 [Example 133, 4-((1R,3aS,5aR,5bR,7aR,11aS,11bR,13aR,13bR)-3a-((5-fluoropyridin-2-yl)methylamino)-5a,5b,8,8,11a-pentamethyl-1-(prop-1-en-2-yl)-2,3,3a,4,5,5a,5b,6,7,7a,8,11,11a,11b,12,13,13a,13b-octadecahydro-1H-cyclopenta[a]chrysen-9-yl)benzoic acid] was tested. Which EC50 did it give?
Answer: 30 nM

Question: With C=C(C)[C@@H]1CC[C@]2(NC(=O)N3CCCN(C)CC3)CC[C@]3(C)[C@H](CC[C@@H]4[C@@]5(C)CC=C(c6ccc(C(=O)O)cc6)C(C)(C)[C@@H]5CC[C@]43C)[C@@H]12 [Example 34, 4-((1R,3aS,5aR,5bR,7aR,11aS,11bR,13aR,13bR)-5a,5b,8,8,11a-pentamethyl-3a-(4-methyl-1,4-diazepane-1-carboxamido)-1-(prop-1-en-2-yl)-2,3,3a,4,5,5a,5b,6,7,7a,8,11,11a,11b,12,13,13a,13b-octadecahydro-1H-cyclopenta[a]chrysen-9-yl)benzoic acid] as the molecule, how does the EC50 read?
Answer: 2 nM

Question: Which EC50 does the source give for C=C(C)[C@@H]1CC[C@]2(NCCNS(=O)(=O)CC)CC[C@]3(C)[C@H](CC[C@@H]4[C@@]5(C)CC=C(c6ccc(C(=O)O)cc6)C(C)(C)[C@@H]5CC[C@]43C)[C@@H]12 [Example B33, 4-((1R,3aS,5aR,5bR,7aR,11aS,11bR,13aR,13bR)-3a-((2-(ethylsulfonamido)ethyl)amino)-5a,5b,8,8,11a-pentamethyl-1-(prop-1-en-2-yl)-2,3,3a,4,5,5a,5b,6,7,7a,8,11,11a,11b,12,13,13a,13b-octadecahydro-1H-cyclopenta[a]chrysen-9-yl)benzoic acid] here?
Answer: 5 nM

Question: For C=C(C)[C@@H]1CC[C@]2(NCc3ncccc3C(F)(F)F)CC[C@]3(C)[C@H](CC[C@@H]4[C@@]5(C)CC=C(c6ccc(C(=O)O)cc6)C(C)(C)[C@@H]5CC[C@]43C)[C@@H]12 [Example 134, 4-((1R,3aS,5aR,5bR,7aR,11aS,11bR,13aR,13bR)-5a,5b,8,8,11a-pentamethyl-1-(prop-1-en-2-yl)-3a-((3-(trifluoromethyl)pyridin-2-yl)methylamino)-2,3,3a,4,5,5a,5b,6,7,7a,8,11,11a,11b,12,13,13a,13b-octadecahydro-1H-cyclopenta[a]chrysen-9-yl)benzoic acid], which EC50 is on record?
Answer: 100 nM
